# Like-named read-outs stand apart in the source and are kept apart here.
# What was measured:
# [1] = biological target: HPK1 (SLP76 phosphorylation at Ser376 in Jurkat and EL-4 cells) (Homo sapiens, UniProt Q92918); assay type: cell-based
# In short: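 Phospho-SLP76 (Ser376) in lysates measured by AlphaLISA for human Jurkat and by 19 h HTRF for mouse EL-4, giving % inhibition and IC50. Compounds applied 60 min before αCD3/αCD28 bead stimulation at 37 °C, lasting 15 min (Jurkat) or 30 min (EL-4).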
# [2] = biological target: full-length human HPK1 (MAP4K1) (Homo sapiens (Human), UniProt Q92918); assay: HPK1 Kinase Assay (Biochemical Assay), ADP-Glo; settings: GST-HPK1 3.2 nM, 10 μM ATP, MBP substrate, read-out: HPK1 enzymatic IC50
# full-length human HPK1 (MAP4K1), sequence (Q92918 whole entry): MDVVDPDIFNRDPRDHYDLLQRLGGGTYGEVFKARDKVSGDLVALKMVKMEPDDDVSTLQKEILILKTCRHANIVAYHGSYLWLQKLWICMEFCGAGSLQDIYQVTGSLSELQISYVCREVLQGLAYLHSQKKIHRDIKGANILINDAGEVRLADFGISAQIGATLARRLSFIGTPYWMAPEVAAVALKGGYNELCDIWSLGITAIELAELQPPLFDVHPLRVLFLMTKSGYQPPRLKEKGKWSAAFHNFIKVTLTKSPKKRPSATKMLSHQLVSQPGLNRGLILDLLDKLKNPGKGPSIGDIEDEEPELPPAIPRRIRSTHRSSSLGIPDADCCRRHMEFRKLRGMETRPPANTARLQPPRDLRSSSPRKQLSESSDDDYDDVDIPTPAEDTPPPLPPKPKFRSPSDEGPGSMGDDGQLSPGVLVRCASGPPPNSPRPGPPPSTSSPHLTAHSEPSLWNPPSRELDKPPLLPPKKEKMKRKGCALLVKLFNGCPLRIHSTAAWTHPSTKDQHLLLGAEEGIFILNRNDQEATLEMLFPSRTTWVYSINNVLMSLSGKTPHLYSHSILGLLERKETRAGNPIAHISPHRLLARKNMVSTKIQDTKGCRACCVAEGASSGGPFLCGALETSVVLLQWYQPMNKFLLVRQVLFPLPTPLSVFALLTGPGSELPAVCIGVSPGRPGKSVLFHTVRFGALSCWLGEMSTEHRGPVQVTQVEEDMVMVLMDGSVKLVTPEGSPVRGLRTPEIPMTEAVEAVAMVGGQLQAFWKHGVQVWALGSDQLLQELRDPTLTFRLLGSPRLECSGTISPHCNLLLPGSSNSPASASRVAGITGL
# In short: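 ADP-Glo luminescence after a 120-min kinase reaction gave percent inhibition and IC50. The enzyme was Sf21-expressed N-terminal GST full-length human HPK1 at 3.2 nM in HEPES pH 7.5 buffer with MgCl2, DTT, Brij-35 and BSA.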
# [3] = αCD3/αCD28 Dynabeads stimulated cells, pSLP76 (Ser376) detection; read-out: HPK1 pSLP76 IC50
# [4] = read-out: HPK1 pSLP76 IC50; αCD3/αCD28 Dynabeads stimulated cells, pSLP76 (Ser376) detection
# HPK1 (SLP76 phosphorylation at Ser376 in Jurkat and EL-4 cells), sequence (Q92918 whole entry, looked up): as the sequence (Q92918 whole entry) above
"IC50 [1, 3]",IC50 [2],Compound,"IC50 [1, 4]"
500 to 1000 nM,< 100 nM,"Cc1c(N2CCc3cnc(Nc4ccc(C5CCN(C)CC5)c(CC#N)c4)nc3C2)cnc2c1NCCO2 [Example 112, 2-(5-((7-(8-methyl-2,3-dihydro-1H-pyrido[2,3-b][1,4]oxazin-7-yl)-5,6,7,8-tetrahydropyrido[3,4-d]pyrimidin-2-yl)amino)-2-(1-methylpiperidin-4-yl)phenyl)acetonitrile]",
< 500 nM,< 100 nM,"Cc1c(N2CCc3cnc(Nc4cccc(CS(C)(=N)=O)c4)nc3C2)cnc2c1NCCO2 (centres unmarked) [Example 168, imino(methyl)(3-((7-(8-methyl-2,3-dihydro-1H-pyrido[2,3-b][1,4]oxazin-7-yl)-5,6,7,8-tetrahydropyrido[3,4-d]pyrimidin-2-yl)amino)benzyl)-16-sulfanone]",
< 500 nM,< 100 nM,"Cc1c(N2CCc3cnc(Nc4cc5n(n4)CC(=O)N(CC(F)F)CC5)cc3C2)cnc2c1NCCO2 [Example 140, 6-(2,2-difluoroethyl)-2-[(6-{8-methyl-1H,2H,3H-pyrido[2,3-b][1,4]oxazin-7-yl}-5,6,7,8-tetrahydro-2,6-naphthyridin-3-yl)amino]-4H,5H,6H,7H,8H-pyrazolo[1,5-d][1,4]diazepin-7-one]",
> 1000 nM,< 100 nM,"Cc1cnsc1N1CCc2cnc(Nc3cnc4c(c3)CN(C)CC4)nc2C1 [Example 119, N-(6-methyl-5,6,7,8-tetrahydro-1,6-naphthyridin-3-yl)-7-(4-methylisothiazol-5-yl)-5,6,7,8-tetrahydropyrido[3,4-d]pyrimidin-2-amine]",
< 500 nM,< 100 nM,"Cc1c(N2CCc3cnc(Nc4ccc(CS(C)(=O)=O)cc4)nc3C2)cnc2c1NCC1(CC1)O2 [Example 139, N-[4-(methanesulfonylmethyl)phenyl]-7-{8′-methyl-1′,2′-dihydrospiro[cyclopropane-1,3′-pyrido[2,3-b][1,4]oxazin]-7′-yl}-5H,6H,7H,8H-pyrido[3,4-d]pyrimidin-2-amine]",
500 to 1000 nM,< 100 nM,"Cc1c(N2CCc3cnc(Nc4ccc(S(C)(=O)=O)cc4)nc3C2)cnc2c1NCCO2 [Example 24, N-(4-methanesulfonylphenyl)-7-{8-methyl-1H,2H,3H-pyrido[2,3-b][1,4]oxazin-7-yl}-5H,6H,7H,8H-pyrido[3,4-d]pyrimidin-2-amine]",
> 1000 nM,< 100 nM,"Cc1c(N2CCc3cnc(Nc4ccc5c(c4)CNC5=O)nc3C2)cnc2c1NCCO2 [Example 85, 5-((7-(8-methyl-2,3-dihydro-1H-pyrido[2,3-b][1,4]oxazin-7-yl)-5,6,7,8-tetrahydropyrido[3,4-d]pyrimidin-2-yl)amino)isoindolin-1-one]",
< 500 nM,< 100 nM,"Cc1c(N2CCc3cnc(Nc4ccc(CS(N)(=O)=O)cc4)nc3C2)cnc2c1NCCO2 [Example 128, {4-[(7-{8-methyl-1H,2H,3H-pyrido[2,3-b][1,4]oxazin-7-yl}-5H,6H,7H,8H-pyrido[3,4-d]pyrimidin-2-yl)amino]phenyl}methanesulfonamide]",
> 1000 nM,< 100 nM,"Cc1c(N2CCc3cnc(Nc4ccc(CS(C)(=O)=O)cc4)nc3C2)cnc2c1NCCC2=O [Example 142, 7-(2-{[4-(methanesulfonylmethyl)phenyl]amino}-5H,6H,7H,8H-pyrido[3,4-d]pyrimidin-7-yl)-8-methyl-1,2,3,4-tetrahydro-1,5-naphthyridin-4-one]",
> 1000 nM,< 100 nM,"Cc1cc(Nc2ncc3c(n2)CN(c2cnc4c(c2C)NCCO4)CC3)ccc1C(=O)N1CC(N(C)C)C1 [Example 38, N,N-dimethyl-1-{2-methyl-4-[(7-{8-methyl-1H,2H,3H-pyrido[2,3-b][1,4]oxazin-7-yl}-5H,6H,7H,8H-pyrido[3,4-d]pyrimidin-2yl)amino]benzoyl}azetidin-3-amin]",
< 500 nM,< 100 nM,"Cc1c(N2CCc3cnc(Nc4cccc(CS(C)(=O)=O)c4)nc3C2)cnc2c1NCCO2 [Example 50, 7-(8-methyl-2,3-dihydro-1H-pyrido[2,3-b][1,4]oxazin-7-yl)-N-(3-((methylsulfonyl)methyl)phenyl)-5,6,7,8-tetrahydropyrido[3,4-d]pyrimidin-2-amine]",
< 500 nM,< 100 nM,"Cc1c(N2CCc3cnc(Nc4ccc(CS(=O)(=O)CC5(C)COC5)cc4)nc3C2)cnc2c1NCCO2 [Example 41, 7-{8-methyl-1H,2H,3H-pyrido[2,3-b][1,4]oxazin-7-yl}-N-(4-{[(3-methyloxetan-3-yl)methanesulfonyl]methyl}phenyl)-5H,6H,7H,8H-pyrido[3,4-d]pyrimidin-2-amine]",
> 1000 nM,< 100 nM,"Cc1c(N2CCc3cnc(Nc4ccc(CN5CCCC5)cc4)nc3C2)cnc2c1NCCO2 [Example 125, 7-{8-methyl-1H,2H,3H-pyrido[2,3-b][1,4]oxazin-7-yl}-N-{4-[(pyrrolidin-1-yl)methyl]phenyl}-5H,6H,7H,8H-pyrido[3,4-d]pyrimidin-2-amine]",
500 to 1000 nM,< 100 nM,"Cc1c(N2CCc3cnc(Nc4cnc5c(c4)CNCC5)nc3C2)cnc2c1NCCO2 [Example 108, 7-(8-methyl-2,3-dihydro-1H-pyrido[2,3-b][1,4]oxazin-7-yl)-N-(5,6,7,8-tetrahydro-1,6-naphthyridin-3-yl)-5,6,7,8-tetrahydropyrido[3,4-d]pyrimidin-2-amine]",
> 1000 nM,100 to 1000 nM,"CN1CCc2ncc(Nc3ncc4c(n3)CN(c3cnc5c(c3)NCCO5)CC4)cc2C1 [Example 87, 7-(2,3-dihydro-1H-pyrido[2,3-b][1,4]oxazin-7-yl)-N-(6-methyl-5,6,7,8-tetrahydro-1,6-naphthyridin-3-yl)-5,6,7,8-tetrahydropyrido[3,4-d]pyrimidin-2-amine]",
> 1000 nM,< 100 nM,"Cc1c(N2CCc3cnc(Nc4ccc(CN(C)C)cc4)nc3C2)cnc2c1NCCO2 [Example 59, N-{4-[(dimethylamino)methyl]phenyl}-7-{8-methyl-1H,2H,3H-pyrido[2,3-b][1,4]oxazin-7-yl}-5H,6H,7H,8H-pyrido[3,4-d]pyrimidin-2-amine; formic acid]",
< 500 nM,< 100 nM,"Cc1c(N2CCc3cnc(Nc4cnc(CS(C)(=O)=O)c(F)c4)nc3C2)cnc2c1NCCO2 [Example 19, 5-fluoro-6-(methanesulfonylmethyl)-N-(7-{8-methyl-1H,2H,3H-pyrido[2,3-b][1,4]oxazin-7-yl}-5H,6H,7H,8H-pyrido[3,4-d]pyrimidin-2-yl)pyridin-3-amine]",
< 500 nM,< 100 nM,"Cc1c(N2CCc3cnc(Nc4cccc(Cn5ccnc5)c4)nc3C2)cnc2c1NCCO2 [Example 191, N-{3-[(1H-imidazol-1-yl)methyl]phenyl}-7-{8-methyl-1H,2H,3H-pyrido[2,3-b][1,4]oxazin-7-yl}-5H,6H,7H,8H-pyrido[3,4-d]pyrimidin-2-amine]",
< 500 nM,< 100 nM,"Cc1c(N2CCc3cnc(Nc4ccc(Cn5cncn5)cc4)nc3C2)cnc2c1NCCO2 [Example 126, 7-{8-methyl-1H,2H,3H-pyrido[2,3-b][1,4]oxazin-7-yl}-N-{4-[(1H-1,2,4-triazol-1-yl)methyl]phenyl}-5H,6H,7H,8H-pyrido[3,4-d]pyrimidin-2-amine]",
500 to 1000 nM,< 100 nM,"Cc1c(N2CCc3cnc(Nc4ccc5c(c4)COC5)nc3C2)cnc2c1NCCO2 [Example 92, N-(1,3-dihydroisobenzofuran-5-yl)-7-(8-methyl-2,3-dihydro-1H-pyrido[2,3-b][1,4]oxazin-7-yl)-5,6,7,8-tetrahydropyrido[3,4-d]pyrimidin-2-amine]",

Compound,"IC50 [1, 3]",IC50 [2],"IC50 [1, 4]"
"Cc1c(N2CCc3cnc(Nc4ccc(CS(C)(=O)=O)cc4)nc3C2C)cnc2c1NCCO2 (centres unmarked) [Example 180, N-[4-(methanesulfonylmethyl)phenyl]-8-methyl-7-{8-methyl-1H,2H,3H-pyrido[2,3-b][1,4]oxazin-7-yl}-5H,6H,7H,8H-pyrido[3,4-d]pyrimidin-2-amine]",< 500 nM,< 100 nM,
"Cc1c(N2CCc3cnc(Nc4ccc(CS(C)(=O)=O)cc4)nc3C2)cnc2nc[nH]c12 [Example 171, N-[4-(methanesulfonylmethyl)phenyl]-7-{7-methyl-1H-imidazo[4,5-b]pyridin-6-yl}-5H,6H,7H,8H-pyrido[3,4-d]pyrimidin-2-amine]",,< 100 nM,500 to 1000 nM
"Cc1c(N2CCc3cnc(Nc4cccc(CN5CCOCC5)c4)nc3C2)cnc2c1NCCO2 [Example 60, 7-{8-methyl-1H,2H,3H-pyrido[2,3-b][1,4]oxazin-7-yl}-N-{3-[(morpholin-4-yl)methyl]phenyl}-5H,6H,7H,8H-pyrido[3,4-d]pyrimidin-2-amine]",,< 100 nM,500 to 1000 nM
"Cc1c(N2CCc3cnc(Nc4ccc(OCCN5CCOCC5)cc4)nc3C2)cnc2c1NCCO2 [Example 97, 7-(8-methyl-2,3-dihydro-1H-pyrido[2,3-b][1,4]oxazin-7-yl)-N-(4-(2-morpholinoethoxy)phenyl)-5,6,7,8-tetrahydropyrido[3,4-d]pyrimidin-2-amine]",,< 100 nM,500 to 1000 nM
"Cc1c(N2CCc3cnc(Nc4cccc(N5CCN(C)CC5)c4)nc3C2)cnc2c1NCCO2 [Example 61, 7-{8-methyl-1H,2H,3H-pyrido[2,3-b][1,4]oxazin-7-yl}-N-[3-(4-methylpiperazin-1-yl)phenyl]-5H,6H,7H,8H-pyrido[3,4-d]pyrimidin-2-amine]",,< 100 nM,500 to 1000 nM
